From ChEMBL document CHEMBL5550210, “Discovery of Novel α,β-Unsaturated Amide Derivatives as Candidate Antifungals to Overcome Fungal Resistance” (J Med Chem, 2024)
≈ marks a conversion by molar mass, not a printed value. Calls of active or inactive are those of the source. The calls are words filed in the database; no cut-off is given here.

How the values were obtained:
Candida albicans [1] = test: Antifungal activity against Candida albicans SC5314 assessed as inhibition of fungal growth by CLSI protocol based microdilution method; type: functional
Candida albicans [2] = test: Antifungal activity against fluconazole-resistant Candida albicans 904 assessed as increase in intracellular ROS production at 32 ug/ml incubated for 4 hrs by DCFH-DA probe based fluorescence spectrophotometric analysis; type: functional, organism-based; details: dose 32.0 µg/ml
[3] = biological target: T1, Lanosterol 14-alpha demethylase (Candida albicans (strain SC5314 / ATCC MYA-2876) (Yeast), UniProt P10613); test: Inhibition of CYP51 in Candida albicans SC5314 assessed as increase in obtusifoliol level at 0.031 ug/ml incubated for 24 hrs by GC-MS analysis relative to control; details: at 0.031 µg/mL
Cryptococcus neoformans = test: Antifungal activity against Cryptococcus neoformans CGMCC2.3161 assessed as inhibition of fungal growth by CLSI protocol based microdilution method; type: functional
Candida albicans [4] = test: Fungicidal activity against Candida albicans assessed as inhibition of fungal growth measured after 48 hrs by CLSI protocol based microdilution method; type: functional
[5] = biological target: Voltage-gated inwardly rectifying potassium channel KCNH2 (Homo sapiens, UniProt Q12809); test: Inhibition of hERG1; type: toxicity
Candida albicans [6] = test: Antifungal activity against fluconazole-resistant Candida albicans CaR assessed as inhibition of fungal growth by CLSI based microdilution method; type: functional
Candida albicans [7] = test: Antifungal activity against Candida albicans CPCC400616 assessed as downregulation of TEC1 gene expression at 2 ug/ml incubated for 12 hrs by RT-PCR analysis; type: functional, organism-based; details: dose 2.0 µg/ml
Candida albicans [8] = test: Antifungal activity against fluconazole-resistant Candida albicans 901 assessed as inhibition of fungal growth by CLSI based microdilution method; type: functional
Candida albicans [9] = test: Antifungal activity against fluconazole-resistant Candida albicans 904 assessed as downregulation of TEC1 gene expression at 16 ug/ml incubated for 12 hrs by RT-PCR analysis; type: functional, organism-based; details: dose 16.0 µg/ml
[10] = Half life in mouse plasma measured at 180 mins; type: ADME, cell-free
Candida albicans [11] = test: Antifungal activity against Candida albicans CPCC400616 assessed as downregulation of CPH1 gene expression at 2 ug/ml incubated for 12 hrs by RT-PCR analysis; type: functional, organism-based; details: dose 2.0 µg/ml
Candida albicans [12] = test: Antifungal activity against Candida albicans assessed as inhibition of fungal growth by CLSI protocol based microdilution method; type: functional
Candida parapsilosis = test: Antifungal activity against Candida parapsilosis ATCC 22019 assessed as inhibition of fungal growth by CLSI protocol based microdilution method; type: functional; details: Lodderomyces parapsilosis
Candida albicans [13] = test: Antifungal activity against Candida albicans CPCC400616 assessed as inhibition of hyphae formation at 2 ug/ml incubated for 4 hrs by inverted microscopic analysis; type: functional, organism-based; details: dose 2.0 µg/ml
Candida albicans [14] = test: Antifungal activity against fluconazole-resistant Candida albicans 17 assessed as inhibition of fungal growth by CLSI based microdilution method; type: functional
Candida albicans [15] = test: Antifungal activity against Candida albicans CPCC400616 assessed as downregulation of ALS3 gene expression at 2 ug/ml incubated for 12 hrs by RT-PCR analysis; type: functional, organism-based; details: dose 2.0 µg/ml
[16] = biological target: T2, Voltage-gated inwardly rectifying potassium channel KCNH6 (Homo sapiens, UniProt Q9H252); test: Inhibition of hERG2; type: toxicity
T2 sequence (Q9H252 whole entry): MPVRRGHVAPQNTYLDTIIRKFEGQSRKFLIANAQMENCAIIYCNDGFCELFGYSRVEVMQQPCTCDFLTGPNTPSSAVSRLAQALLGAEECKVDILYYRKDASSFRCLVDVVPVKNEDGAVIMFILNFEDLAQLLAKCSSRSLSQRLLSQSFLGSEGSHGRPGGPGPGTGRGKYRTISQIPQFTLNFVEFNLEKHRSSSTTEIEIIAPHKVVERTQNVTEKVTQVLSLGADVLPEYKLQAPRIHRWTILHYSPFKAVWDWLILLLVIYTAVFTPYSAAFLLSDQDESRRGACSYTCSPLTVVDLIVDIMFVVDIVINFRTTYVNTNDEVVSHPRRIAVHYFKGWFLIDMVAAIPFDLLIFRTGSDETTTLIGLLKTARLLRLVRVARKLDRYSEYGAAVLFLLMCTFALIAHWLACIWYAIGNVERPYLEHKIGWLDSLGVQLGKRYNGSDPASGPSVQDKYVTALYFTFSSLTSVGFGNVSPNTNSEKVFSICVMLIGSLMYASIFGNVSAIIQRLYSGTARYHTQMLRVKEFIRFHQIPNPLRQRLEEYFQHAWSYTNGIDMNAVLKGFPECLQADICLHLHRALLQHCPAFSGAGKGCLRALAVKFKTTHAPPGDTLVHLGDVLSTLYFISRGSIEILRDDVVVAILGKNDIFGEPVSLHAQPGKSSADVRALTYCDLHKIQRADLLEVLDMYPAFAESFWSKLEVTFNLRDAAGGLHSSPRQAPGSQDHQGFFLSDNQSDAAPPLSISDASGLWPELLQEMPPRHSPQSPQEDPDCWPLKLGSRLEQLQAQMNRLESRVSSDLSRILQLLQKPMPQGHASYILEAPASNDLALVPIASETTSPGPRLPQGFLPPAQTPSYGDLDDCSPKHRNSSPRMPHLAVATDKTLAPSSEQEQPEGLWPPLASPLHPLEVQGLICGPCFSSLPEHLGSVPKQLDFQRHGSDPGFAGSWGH

Candida albicans [17] = test: Antifungal activity against fluconazole-resistant Candida albicans 904 assessed as downregulation of CDR2 gene expression at 16 ug/ml incubated for 16 hrs by RT-PCR analysis; type: functional, organism-based; details: dose 16.0 µg/ml
J774.A1 = test: Cytotoxicity against mouse J774.A1 cells assessed as inhibition of cell growth incubated for 72 hrs by MTT assay; type: functional, cell-based; details: J774.A1, 72 h
Candida albicans [18] = test: Antifungal activity against fluconazole-resistant Candida albicans 904 assessed as downregulation of CPH1 gene expression at 16 ug/ml incubated for 12 hrs by RT-PCR analysis; type: functional, organism-based; details: dose 16.0 µg/ml
Candida albicans [19] = test: Antifungal activity against Candida albicans CPCC400616 assessed as inhibition of fungal biofilm formation incubated for 24 hrs by XTT assay; type: functional, organism-based
[20] = biological target: T1, Lanosterol 14-alpha demethylase; test: Inhibition of CYP51 in Candida albicans SC5314 assessed as reduction in ergosterol content at 0.031 ug/ml incubated for 24 hrs by GC-MS analysis relative to control; details: at 0.031 µg/mL
Candida albicans [21] = test: Antifungal activity against fluconazole-resistant Candida albicans 904 assessed as increase in intracellular fluorescence intensity at 32 ug/ml incubated for 4 hrs by fluorescence inverted microscopic analysis; type: functional, organism-based; details: dose 32.0 µg/ml
Candida albicans [22] = test: Antifungal activity against fluconazole-resistant Candida albicans 632 assessed as inhibition of fungal growth by CLSI based microdilution method; type: functional
[23] = biological target: T1, Lanosterol 14-alpha demethylase; test: Inhibition of CYP51 in Candida albicans SC5314 assessed as increase in eburicol level at 0.031 ug/ml incubated for 24 hrs by GC-MS analysis relative to control; details: at 0.031 µg/mL
[24] = biological target: T1, Lanosterol 14-alpha demethylase; test: Inhibition of CYP51 in Candida albicans SC5314 assessed as increase in lanosterol level at 0.031 ug/ml incubated for 24 hrs by GC-MS analysis relative to control; details: at 0.031 µg/mL
Candida albicans [25] = test: Antifungal activity against Candida albicans CPCC400616 assessed as inhibition of fungal growth by CLSI protocol based microdilution method; type: functional

T1 sequence (P10613 whole entry): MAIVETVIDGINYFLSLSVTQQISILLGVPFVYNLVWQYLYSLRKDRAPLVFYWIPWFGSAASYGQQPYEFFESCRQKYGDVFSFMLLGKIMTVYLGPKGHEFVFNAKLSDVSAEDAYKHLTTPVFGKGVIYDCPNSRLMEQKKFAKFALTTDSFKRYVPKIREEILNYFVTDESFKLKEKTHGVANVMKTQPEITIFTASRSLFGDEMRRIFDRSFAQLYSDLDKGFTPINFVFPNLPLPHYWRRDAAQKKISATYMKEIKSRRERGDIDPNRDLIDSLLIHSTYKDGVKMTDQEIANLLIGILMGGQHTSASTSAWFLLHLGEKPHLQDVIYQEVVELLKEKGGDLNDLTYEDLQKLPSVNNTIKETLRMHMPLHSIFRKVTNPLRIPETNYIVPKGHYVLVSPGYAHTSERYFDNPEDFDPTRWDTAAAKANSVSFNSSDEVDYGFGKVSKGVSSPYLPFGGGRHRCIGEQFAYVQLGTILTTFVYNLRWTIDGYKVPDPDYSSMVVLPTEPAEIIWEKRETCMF
Chain of Voltage-gated inwardly rectifying potassium channel KCNH2 (Q12809 whole entry): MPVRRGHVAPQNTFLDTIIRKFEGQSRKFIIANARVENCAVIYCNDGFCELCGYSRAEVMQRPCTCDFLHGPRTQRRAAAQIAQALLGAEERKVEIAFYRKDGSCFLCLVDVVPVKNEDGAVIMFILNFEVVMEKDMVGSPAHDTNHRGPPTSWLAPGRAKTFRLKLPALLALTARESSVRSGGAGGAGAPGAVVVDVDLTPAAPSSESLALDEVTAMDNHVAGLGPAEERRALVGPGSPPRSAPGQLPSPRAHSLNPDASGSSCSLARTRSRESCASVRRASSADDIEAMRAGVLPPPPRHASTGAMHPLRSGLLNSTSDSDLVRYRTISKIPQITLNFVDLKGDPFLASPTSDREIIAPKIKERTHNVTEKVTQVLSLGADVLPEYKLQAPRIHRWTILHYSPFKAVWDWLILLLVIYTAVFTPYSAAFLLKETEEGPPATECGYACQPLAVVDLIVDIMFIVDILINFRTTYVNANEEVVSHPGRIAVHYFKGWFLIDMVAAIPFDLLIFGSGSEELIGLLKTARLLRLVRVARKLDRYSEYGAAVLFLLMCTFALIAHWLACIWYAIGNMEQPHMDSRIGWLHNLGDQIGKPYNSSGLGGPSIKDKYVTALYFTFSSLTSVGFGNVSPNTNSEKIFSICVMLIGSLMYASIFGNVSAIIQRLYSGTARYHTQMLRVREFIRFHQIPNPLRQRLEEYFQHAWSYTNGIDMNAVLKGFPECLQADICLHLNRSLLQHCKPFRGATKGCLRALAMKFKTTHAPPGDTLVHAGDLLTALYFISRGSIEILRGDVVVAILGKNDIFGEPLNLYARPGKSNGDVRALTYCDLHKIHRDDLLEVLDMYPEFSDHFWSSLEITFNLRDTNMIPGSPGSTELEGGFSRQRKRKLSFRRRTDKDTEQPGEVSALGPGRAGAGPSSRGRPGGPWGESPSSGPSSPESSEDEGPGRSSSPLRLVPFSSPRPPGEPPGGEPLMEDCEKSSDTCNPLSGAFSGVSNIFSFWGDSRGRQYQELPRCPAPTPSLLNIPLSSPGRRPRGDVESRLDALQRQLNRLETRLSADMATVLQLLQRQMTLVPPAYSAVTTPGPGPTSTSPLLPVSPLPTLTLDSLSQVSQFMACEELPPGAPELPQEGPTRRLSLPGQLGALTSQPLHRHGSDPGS

SMILES | MIC (Candida albicans [1]) [µg/mL] | Activity (Candida albicans [2]) | inhibition (INH) [3] | MIC (Cryptococcus neoformans) [µg/mL] | MFC (Candida albicans [4]) [µg/mL] | inhibition (INH) [5] | MIC (Candida albicans [6]) [µg/mL] | Activity (Candida albicans [7]) | MIC (Candida albicans [8]) [µg/mL] | Activity (Candida albicans [9]) | half-life [10] [h] | Activity (Candida albicans [11]) | MIC (Candida albicans [12]) [µg/mL] | MIC (Candida parapsilosis) [µg/mL] | Activity (Candida albicans [13]) | MIC (Candida albicans [14]) [µg/mL] | Activity (Candida albicans [15]) | inhibition (INH) [16] | Activity (Candida albicans [17]) | IC50 (J774.A1) [µM] | further results
CCCCNC(=O)/C=C/c1ccc(COC(Cn2ccnc2)c2ccc(Cl)cc2Cl)cc1 (stereo unspecified) | 0.015 (≈ 0.0318 µM) | Active | Active | 0.5 (≈ 1.06 µM) | 32 (≈ 67.7 µM) | Not Active | 1 (≈ 2.12 µM) | Active | 1 (≈ 2.12 µM) | Active | > 6 | Active | 2 (≈ 4.23 µM) | 0.06 (≈ 0.127 µM) | Active | 4 (≈ 8.47 µM) | Active | Active | Active | 29.4 | Activity (Candida albicans [18]): Active; Activity (Candida albicans [19]): Dose-Dependent Effect; inhibition (INH) [20]: 0.67%; Activity (Candida albicans [21]): Active; MIC (Candida albicans [22]): 0.25 µg/mL (≈ 0.529 µM); inhibition (INH) [23]: Active; inhibition (INH) [24]: Active; MIC (Candida albicans [25]): 0.03 µg/mL (≈ 0.0635 µM)
O=C(/C=C/c1ccc(COC(Cn2ccnc2)c2ccc(Cl)cc2Cl)cc1)Nc1ccc(Cl)cc1Cl (stereo unspecified) | 0.03 (≈ 0.0534 µM) | Active | Active | 0.5 (≈ 0.891 µM) | 32 (≈ 57 µM) | Active | 1 (≈ 1.78 µM) | Active | 1 (≈ 1.78 µM) | Active | > 6 | Active | 1 (≈ 1.78 µM) | 0.06 (≈ 0.107 µM) | Active | 0.25 (≈ 0.445 µM) | Active | Active | Active | 24.6 | Activity (Candida albicans [18]): Active; Activity (Candida albicans [19]): Dose-Dependent Effect; inhibition (INH) [20]: 1.25%; Activity (Candida albicans [21]): Active; MIC (Candida albicans [22]): 0.25 µg/mL (≈ 0.445 µM); inhibition (INH) [23]: Active; inhibition (INH) [24]: Active; MIC (Candida albicans [25]): 0.06 µg/mL (≈ 0.107 µM)
